# Measurements reported in patent US20080050452A1, “METAL-CONTAINING FORMULATIONS AND METHODS OF USE” (priority 2006, published 2008).
# What was measured:
# [1] = Compatibility of nanocrystalline silver with excipients; type: physicochemical; settings: 10% aqueous solution of excipient mixed with nanocrystalline silver in glass vial, 40° C. overnight
# [2] = system: Escherichia coli; assay: MIC assay; type: cell-based
# [3] = system: Enterobacter cloacae; assay: MIC assay; type: cell-based; settings: Ent. cloacae
# [4] = system: Streptococcus pyogenes; assay: MIC assay; type: cell-based; settings: solutions in 0.1 M lactate buffer pH 4.0
# [5] = system: DNBS-induced colitis; assay: Total IBD score in rat DNBS-induced colitis; type: in vivo, Sprague-Dawley rats
# Description: Animals: Male Sprague-Dawley rats, weighing approximately 250-300 gm were purchased from Charles River Laboratories (Raleigh, N.C.). The animals were housed under standard conditions with free access to food and water. They were acclimatized for 2-3 days before commencing the experiments. The study protocol was approved by the Institutional Animal Care and Use Committees (IACUC).
# Induction of ulcerative colitis: Colitis was produced according to published methods. Animals were anesthetized by intraperitoneal injection of 75 mg/kg of ketamine plus 5 mg/kg of xylazine. A single intracolonic injection of 120 mg/ml of dinitrobenzenesulfonic acid (DNBS) (Sigma Chemicals, St. Louis, Mo.) in 250 micro liter of 50% ethanol was administered through a Tom Cat catheter (Kendall Sovereign, Mansfield, Mass.) with a closed-end tip, connected to a 1 ml syringe and placed 7 cm proximal to the anus. Lubricant was applied to the tip of the catheter before injection, to protect from mucosal injury. After instillation of DNBS, 0.5 ml of air was insufflated and the catheter was removed.
# Sulfasalazine (Sigma Chemicals, St Louis, Mo.), at a concentration of 120 mg/ml for intracolonic treatment and 30 mg/ml for oral treatment was used as the reference drug in all the experiments. Sulfasalazine was first dissolved in 0.1M NaOH at a concentration about 30-fold higher than the required final concentration, and then suspended in 1.5% PVA for oral dosing and 5.7% PVA for intracolonic dosing.
# One group was not treated and served as no treatment group. Treatment began one day after administration of DNBS.
# Macroscopic Observations: Body weight was recorded daily and the animals were examined for their physical appearance. After five days of treatment, animals were sacrificed. The colon was excised between the ileocecal junction and rectum, and opened longitudinally. After scoring of the consistency of the stool the colon was rinsed in normal saline, examined and thickness of the colonic wall and number and size of ulcers were scored. Stool consistency was graded on a scale of 0-3: 0=normal stool, well formed pellets rigid as normal; 1=loose stool, formed pellet with moisture, soft stool keeping in stool shape; 2=loose stool, stools that have abnormal form with much moisture, softer shapeless stool; 3=watery or bloody diarrhea.
# Thickness of colonic wall was graded on a scale of 0-4: 0=normal, no thickness; 1=mild thickness in lower portion of the colon; 2=moderate thickness in localized area; 3=moderate thickness extending to the central portion of the colon; 4=severe thickness in the whole colon. Colonic ulceration was graded on a scale of 0-10: 0=no ulcers; 1=one small ulcer less than 2-3 mm; 2=one large ulcer more than 2-3 mm; 3=two large ulcerations more than 2-3 mm in diameter; 4=two or more sites of ulcerations extending 1 cm along the length; 5-10=when an area of ulceration extended more than 1 cm along the length of the colon, the score increases by 1 for each additional cm of involvement. The total IBD score, obtained by the sum of the scores of colonic ulcer, colon thickness and stool consistency for each animal, was calculated for each treatment group.
# Statistical Analysis: The results are expressed as the mean ±SE. The statistical significance in the mean total IBD score, histopathological inflammation score, and the immunohistochemical staining of cytokines or MMP-9 was determined using Tukey-Kramer's multiple comparison tests following one-way analysis of variance (ANOVA). The data were calculated with the aid of Instat Graph Pad Software. Differences with a P value less than 0.05 were considered significant.
# Methods: Colitis was induced in rats using DNBS as described in Example 25. Animals were treated intracolonically (250 μl of the test reagents) once a day for five days. […] Methods: Colitis was induced in rats using DNBS as described in Example 25. Animals were treated intracolonically (250 μl of the test reagents) once a day for five days.
# [6] = system: Staphylococcus aureus; assay: MIC assay; type: cell-based; settings: solutions in 0.1 M lactate buffer pH 4.0
# [7] = system: Streptococcus pneumoniae; assay: MIC assay; type: cell-based; settings: solutions in 0.1 M lactate buffer pH 4.0
# [8] = system: Pseudomonas aeruginosa; assay: MIC assay; type: cell-based; settings: solutions in 0.1 M lactate buffer pH 4.0
# [9] = system: Staphylococcus epidermidis; assay: MIC assay; type: cell-based; settings: S. epiderm (ATCC); solutions in 0.1 M lactate buffer pH 4.0
# [10] = system: IL-1β; assay: Immunohistochemical staining of colon, rat DNBS-induced colitis; type: in vivo; settings: oral treatment five days
# Description: (§1) Immunohistochemistry: A Universal Streptavidin/Biotin detection system (Thermo Shandon, Pittsburgh, Pa.) was used for immunohistochemical staining of formalin fixed, paraffin embedded biopsies of the colon. After dewaxing, and hydration, sections were treated with protein blocking agent to reduce non-specific binding of antibodies. The tissues were then incubated with rabbit anti-rat TNF-α, or mouse anti-rat IL-12 p70 antibodies (Biosource International, Inc, Camarillo, Calif.); rabbit anti-rat IL-1β (Serotec, Raleigh, N.C.) or rabbit anti-rat MMP-9 antibody (Chemicon International, Telecuma, Calif.) in 1% bovine serum albumin in phosphate buffered saline. Incubations with secondary antibodies, streptavidin/biotin, and chromogenic detection of peroxidase were performed according to the manufacturer's protocol. Sections were counterstained, dehydrated, mounted and examined. The intensity of the immuno-peroxidase staining was graded as described previously. Expression of cytokines was graded as: 0, no staining in the section; 1, less than 25% of the section; 2, 25-50% of the section; 3, 50-75% of the section; 4, >75% of the section with significant staining.
# [11] = system: MMP-9; assay: as above; type: in vivo; settings: colonic tissues, oral treatment, vs placebo and no treatment
# Description: as §1
# [12] = system: TNF-α; assay: as above; type: in vivo; settings: oral treatment five days
# Description: as §1
# [13] = system: DNBS-induced colitis; assay: Histopathological inflammation score of colon, rat DNBS-induced colitis; type: in vivo, Sprague-Dawley rats; settings: oral, 100 mg/kg, five days, vs placebo and untreated
# Description: Histopathology: A piece of colonic tissue at 2-4 cm proximal to the anus was excised and fixed in 10% formalin and the sections were stained with hematoxylin and eosin. The remaining length of the colonic tissues was stored at −80° C. for subsequent biochemical assays. The histology slides were examined by a veterinary pathologist who was blinded to the treatment groups. The extent of microscopic mucosal damage of the colon was scored on scale of 0-5 as described with slight modification: 0=normal histological appearance; 1=histological damage limited to surface epithelium, mild infiltration of the submucosa; 2=focal ulceration and cell disruption limited to mucosa, abnormal appearance of colonic wall, mild infiltration of inflammatory cells; 3=focal, transmural inflammation and ulceration, with mild to moderate infiltration of inflammatory cells; 4=Extensive transmural ulceration and inflammation bordered by areas of normal mucosa, moderate infiltration of inflammatory cells; 5=extensive transmural ulceration and inflammation involving entire section from epithelium to serosa, severe infiltration of inflammatory cells.
# Statistical Analysis: The results are expressed as the mean ±SE. […] The data were calculated with the aid of Instat Graph Pad Software. […]
# [14] = Body weight in rat DNBS-induced colitis; type: in vivo, Sprague-Dawley rats; settings: rats with DNBS-induced colitis, intracolonic or oral treatment
molecule,measurement,setting,value
CCCCCCCCCCCCCC(=O)OC(C)C [Isopropyl myristate],Reaction with nanocrystalline silver,[1],Grey color - no discoloration
"CCOCCOCCO [Transcutol, diethylene glycol monoethyl ether]",Reaction with nanocrystalline silver,[1],Grey color - no discoloration
"OO [Sample H2O2, hydrogen peroxide]",MIC,"[2]; E. coli, absence of catalase and superoxide dismutase (−)",31 µg/mL
same,MIC,"[2]; E. coli, presence of catalase and superoxide dismutase (+)",>500 µg/mL
same,MIC,[3]; absence of catalase and superoxide dismutase (−),63 µg/mL
same,MIC,[3]; presence of catalase and superoxide dismutase (+),>500 µg/mL
same,Reaction with nanocrystalline silver,[1],Brown discoloration after drying
CCCCCCCCCCCCCCCCO [Cetyl alcohol],Reaction with nanocrystalline silver,[1],Grey color - no discoloration
PEG 400,Reaction with nanocrystalline silver,[1],Grey color - no discoloration
O=C([O-])c1ccccc1.[Na+] [Sodium benzoate],Reaction with nanocrystalline silver,[1],White precipitate
CCCOC(=O)c1ccc(O)cc1 [Propylparaben],Reaction with nanocrystalline silver,[1],Green discoloration
CCCCCCCCCCCCCCCCCCO [Cetearyl alcohol],Reaction with nanocrystalline silver,[1],Light brown/green/black
silver oxide [Ag2O],MIC,[4]; S. pyog (clin. 303),2 µg/mL
same,MIC,[4]; S. pyog (clin. 304),3 µg/mL
same,total IBD score vs placebo,"[5]; Example 27, intracolonic 250 μl once a day for five days, 0.25% homogenized",unable to show significant reduction
same,total IBD score vs placebo,"[5]; Example 27, intracolonic 250 μl once a day for five days, 0.5% homogenized",unable to show significant reduction
same,total IBD score vs placebo,"[5]; Example 27, intracolonic 250 μl once a day for five days, 0.5% sonicated nanodispersion",significantly reduced
same,total IBD score vs placebo,"[5]; Example 28, intracolonic 250 μl once a day for five days, 0.5% sonicated nanodispersion",significantly reduced
same,total IBD score vs placebo,"[5]; Example 28, intracolonic 250 μl once a day for five days, 1.5% sonicated nanodispersion",significantly reduced
same,MIC,[6]; S. aureus (ATCC),3 µg/mL
same,MIC,[6]; S. aureus (clin.),6 µg/mL
same,MIC,[7]; S. pneumo (clin 314),3 µg/mL
same,MIC,[7]; S. pneumo (clin 315),2 µg/mL
same,MIC,"[2]; E. coli (ATCC), solutions in 0.1 M lactate buffer pH 4.0",0.8 µg/mL
same,MIC,[8]; P. aerug (ATCC),0.8 µg/mL
same,MIC,[8]; P. aerug. (clin.),2 µg/mL
same,MIC,[9],2 µg/mL
COC(=O)c1ccc(O)cc1 [Methylparaben],Reaction with nanocrystalline silver,[1],Brown discoloration
OCc1ccccc1 [Benzyl alcohol],Reaction with nanocrystalline silver,[1],Grey/slightly red
"O=C(O)c1cc(/N=N/c2ccc(S(=O)(=O)Nc3ccccn3)cc2)ccc1O [sulfasalazine, salicylazosulfapyridine]",expression of IL-1β (immunohistochemical staining),[10],significantly reduced
same,expression of MMP-9 (immunohistochemical staining),[11],significantly reduced
same,expression of TNF-α (immunohistochemical staining),[12],significantly reduced
same,total IBD score vs placebo,"[5]; Example 27, intracolonic, 100 mg/kg",significantly reduced
same,total IBD score vs placebo,"[5]; Example 28, intracolonic, 100 mg/kg",significantly reduced
same,total IBD score,"[5]; intracolonic, 100 mg/kg, five days",Significant reduction
same,histopathological inflammation score,[13],significantly reduced
same,body weight change,[14],started gaining body weight after one day of treatment
CC(O)CO (stereo not drawn) [Propylene glycol],Reaction with nanocrystalline silver,[1],Discoloration
CCCCCCCCCCCCCCCCCC(=O)OCC(O)CO (stereo not drawn) [Glycerol monostearate],Reaction with nanocrystalline silver,[1],Brown discoloration
Sodium parabens,Reaction with nanocrystalline silver,[1],Precipitation
Polyoxyl 40 stearate,Reaction with nanocrystalline silver,[1],Grey color - no discoloration
CCCCCCCCCCCCCCCCCC(=O)O [Stearic acid],Reaction with nanocrystalline silver,[1],Grey color - no discoloration
